Test results: patent publication US20040122061A1, “Inhibitors of post-amadori advanced glycation end products” (BioStratum, Inc., priority 2002, published 2004)
Read-outs that look alike come from different tables or passages of the source.

How the values were obtained:
[1] = tested on: conversion of Amadori compounds to post Amadori advanced glycation endproducts (bovine serum albumin and ribonuclease A glycated by ribose); assay: Interrupted glycation: inhibition of post-Amadori AGE formation; format: biochemical; conditions: interrupted glycation with ribose, 37° C., pH 7.5; read-out: IC50 for inhibiting the conversion of Amadori compounds to post Amadori advanced glycation endproducts
Description: The effect of [2,4′]Bipyridinyl-3′-ol, 5-Hydroxymethyl-4-(1H-imidazol-2-yl)-2-methyl-pyridin-3-ol, and 4-(1H-Imidazol-2-yl)-pyridin-3-ol on post-Amadori AGE formation during interrupted glycation of bovine serum albumin and ribonuclease A by ribose was determined in comparison to pyridoxamine. Modification with ribose was done at 37° C. in 0.2 M phosphate buffer of pH 7.5 containing 0.02% sodium azide. The solutions were kept in capped tubes and opened only to remove timed aliquots that were immediately frozen for later carrying out the various analyses. “Interrupted glycation” experiments were carried out by first incubating protein with the ribose at 37° C. for 8 or 24 h, followed by immediate and extensive dialysis against frequent cold buffer changes at 4° C. The samples were then re-incubated by quickly warming to 37° C. in the absence of external ribose. Aliquots were taken and frozen at various intervals for later analysis. (See U.S. Pat. No. 5,985,857)
The interrupted glycation method for following post-Amadori kinetics of AGE formation allows for the rapid quantitative study of “late” stages of the glycation reaction. Importantly, this method allows for inhibition studies that are free of pathways of AGE formation that arise from glycoxidative products of free sugar or Schiff base (Namiki pathway). The experiments were designed to determine the half-maximal inhibitory concentration of these compounds (“IC50 values”) for inhibiting the conversion of Amadori compounds to post Amadori advanced glycation endproducts.

[2] = tested on: streptozotocin (STZ)-diabetic rats; assay: Rat model of diabetic neuropathy (STZ-diabetic rats); format: in vivo; conditions: 50 mg/L in drinking water
Description: Our aim was to ascertain whether BST-4997 treatment could correct nerve dysfunction in streptozotocin (STZ)-diabetic rats. Animals (n=10) were made diabetic for 6 weeks (group D), following which they were treated for 2 weeks with BST-4997 (group DBST) given in the drinking water at a concentration of 50 mg/L. They were compared to control non-diabetic rats (groups C). Statistical significance is reported according to the legend: **, *** p<0.01, p<0.001 versus untreated controls; ### p<0.001 treatment effect versus untreated diabetics.
FIG. 13 provides a graphical representation of the effect of BST-4997 on restoring nerve conduction velocity (NCV) in the STZ rats. Motor NCV was tested between the sciatic notch and knee for the nerve branch to tibialis anterior muscle, as described in Cameron et al., Q. J. Exp. Physiol. 74: 917-926 (1989); and Cameron et al., Exp. Neurol. 92: 757-761 (1986). Saphenous sensory NCV was measured between the groin and ankle.
FIG. 14 provides a graphical representation of the effect of BST-4997 on restoring endoneurial perfusion in the STZ rats. Vascular blood flow, pressure, and conductance were measured.
FIG. 15 provides a graphical representation of the effect of BST-4997 on improving pain related measures in the STZ rats. Responses to tactile allodynia, pressure, and thermal stimuli were measured.

bovine serum albumin = molecular target: T1, bovine serum albumin (Bos taurus, UniProt P02769); assay: Compound binding to plasma albumin (ultrafiltration, free compound), BSA; format: in vitro ADME; conditions: BSA 40 mg/ml; for Kd: read-out: Computed (1:1) Kd; for fraction unbound at 8 μg/ml: compound 8 μg/ml
T1 construct: from tissue; host or cells: plasma / serum (from the name; preparation not described)
T1 sequence (P02769 25-607): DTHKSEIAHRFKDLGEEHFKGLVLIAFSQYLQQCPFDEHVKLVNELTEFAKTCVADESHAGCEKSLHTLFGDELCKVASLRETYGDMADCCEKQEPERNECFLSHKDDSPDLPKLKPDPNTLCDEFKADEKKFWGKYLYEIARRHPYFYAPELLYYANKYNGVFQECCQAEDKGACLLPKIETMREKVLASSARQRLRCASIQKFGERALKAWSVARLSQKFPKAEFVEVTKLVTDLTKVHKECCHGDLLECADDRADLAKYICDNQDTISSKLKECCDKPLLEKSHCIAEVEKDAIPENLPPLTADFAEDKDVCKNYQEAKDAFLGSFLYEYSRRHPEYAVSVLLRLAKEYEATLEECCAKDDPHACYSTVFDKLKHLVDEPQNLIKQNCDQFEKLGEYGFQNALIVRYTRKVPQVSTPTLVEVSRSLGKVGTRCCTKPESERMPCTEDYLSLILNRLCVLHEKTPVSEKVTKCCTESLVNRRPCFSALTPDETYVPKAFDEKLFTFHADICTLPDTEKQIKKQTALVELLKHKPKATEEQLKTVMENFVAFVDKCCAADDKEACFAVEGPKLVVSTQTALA
Description: (§1) This study was done to measure the binding of compounds of the present invention to plasma albumin. Such binding can result in longer plasma retention times and enhanced therapeutic efficacy for the compounds. The proteins tested were bovine serum albumin, bovine (BSA) at 40 mg/ml and rat albumin at ˜13 mg/ml.
(§2) Spectrophotmetry: Two mL of protein solution in 0.1M phosphate buffer saline (PBS) at pH 7.4 was titrated with compound in 0.2 M phosphate buffer at pH 7.4. The protein concentration was prepared to have absorbance less than 1 at the observation wavelength range (250-500), and the total volume change during titration was controlled below 2%. The compound-protein binding detection was based on the shift of spectrum.
Free compound measurement: One ml of compound and protein mixture was incubated at 37° C. for about 30 min and loaded into Centricon YM-10 (10,000 MW cut-off, for BSA) or Microcon YC-3 (3,000 MW cut-off). The samples were centrifuged in a fixed-angle rotor at 6,000 rpm for about 6-8 min (Centricon) or at 9,000 rpm for about 15 min (Microcon) to allow about 10-20% of the volume to filter through. Free compound passes through the membrane while the free and complexed protein remains in the sample reservoir. The concentration of free compound in the filtrate is assumed to be the same as in the sample above the membrane. A fixed amount of filtrate aliquot was diluted to 0.6 ml with PBS at pH 7.4 (PBS was prepared using 1 tablet from Sigma dissolved in 200 ml deionized H2O) and measured by UV absorbance. To quantify the percentage of free compound, the same compound at the same concentration in PBS solution, as standard, was prepared in parallel through the same process, or a calibration curve was generated through the same process. 1 ml of PBS solution (as blank) and 1 ml of protein solution (as control) also went through the same process and measurement.
Calculations: The method used to determine the percentage of free compound was either (a) % Free compound=(Asample−Acontrol)/Astandard×100, where, A is absorbance at selected wavelength; or (b) Obtaining free compound concentration of sample from calibration curve, and then divided by total concentration: Kd=[P][L]/[PL] (for 1:1 binding), using BSA MW=70,000.

rat albumin = molecular target: T2, rat albumin (Rattus norvegicus, UniProt P02770); assay: Compound binding to plasma albumin (ultrafiltration, free compound), rat albumin; format: in vitro ADME; conditions: compound 10 μg/ml, rat albumin ~13 mg/ml
T2 construct: from tissue; host or cells: plasma (from 'plasma albumin'; preparation not described)
T2 sequence (P02770 25-608): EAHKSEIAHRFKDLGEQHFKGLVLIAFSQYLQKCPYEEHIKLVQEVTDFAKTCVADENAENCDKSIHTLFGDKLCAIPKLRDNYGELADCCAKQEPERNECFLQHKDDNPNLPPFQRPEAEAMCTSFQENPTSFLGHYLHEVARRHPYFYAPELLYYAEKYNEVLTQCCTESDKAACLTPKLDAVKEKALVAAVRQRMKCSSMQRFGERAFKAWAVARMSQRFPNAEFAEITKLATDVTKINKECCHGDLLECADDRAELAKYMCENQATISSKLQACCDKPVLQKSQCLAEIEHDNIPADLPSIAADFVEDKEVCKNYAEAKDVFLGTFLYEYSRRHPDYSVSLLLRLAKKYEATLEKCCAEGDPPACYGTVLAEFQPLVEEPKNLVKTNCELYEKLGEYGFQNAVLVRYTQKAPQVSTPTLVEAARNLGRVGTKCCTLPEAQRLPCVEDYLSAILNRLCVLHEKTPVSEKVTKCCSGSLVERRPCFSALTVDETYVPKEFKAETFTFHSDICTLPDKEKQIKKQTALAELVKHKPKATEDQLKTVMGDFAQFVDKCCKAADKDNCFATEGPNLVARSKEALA
Description: as §1, §2
Free compound measurement: One ml of compound and protein mixture was incubated at 37° C. for about 30 min and loaded into Centricon YM-10 (10,000 MW cut-off, for BSA) or Microcon YC-3 (3,000 MW cut-off). […] A fixed amount of filtrate aliquot was diluted to 0.6 ml with PBS at pH 7.4 (PBS was prepared using 1 tablet from Sigma dissolved in 200 ml deionized H2O) and measured by UV absorbance. To quantify the percentage of free compound, the same compound at the same concentration in PBS solution, as standard, was prepared in parallel through the same process, or a calibration curve was generated through the same process. […]

[3] = STZ rats diabetic 6 weeks, then 2 weeks treatment, FIG. 13
[4] = STZ rats, 2 weeks treatment, FIG. 14
[5] = STZ rats, 2 weeks treatment, FIG. 15
[6] = bovine, bovine serum albumin solution (40 mg/ml), pH 7.4, 37° C.

In the case of Cc1ncc(CO)c(-c2ncc[nH]2)c1O [BST4997, 5-Hydroxymethyl-4-(1H-imidazol-2-yl)-2-methyl-pyridin-3-ol], the IC50 [1] is reported as 200 to 300 µM, the “diabetes-associated defect in motor nerve conduction velocity (NCV)” value [2, 3] is reported as “dramatically reduced” and the “diabetes-associated defect in sensory nerve conduction velocity (NCV)” value [2, 3] is reported as “dramatically reduced”. For the same molecule, the “correction of nerve dysfunction” value ([2]; STZ rats, 2 weeks treatment) was “effective in correcting nerve dysfunction”, the “diabetes-associated defect in endoneurial blood flow” value [2, 4] was “dramatically reduced” and the “diabetes-associated defect in endoneurial vascular conductance” value [2, 4] was “dramatically reduced”. The “diabetes-associated defect in tactile allodynia” value [2, 5] was “dramatically reduced”, the “diabetes-associated defect in thermal hyperalgesia (latency for foot withdrawal from a noxious heat stimulus)” value [2, 5] was “dramatically reduced” and the fraction unbound at 5 μg/ml (bovine serum albumin; bovine, bovine serum albumin solution (40 mg/ml), compound 5 μg/ml, pH 7.4, 37° C., read-out: % Free BST4997) was 0.31. It also gave a fraction unbound at 10 μg/ml (bovine serum albumin; bovine, bovine serum albumin solution (40 mg/ml), compound 10 μg/ml, pH 7.4, 37° C., read-out: % Free BST4997) of 0.3, a fraction unbound at 20 μg/ml (bovine serum albumin; bovine, bovine serum albumin solution (40 mg/ml), compound 20 μg/ml, pH 7.4, 37° C., read-out: % Free BST4997) of 0.38 and a Kd (bovine serum albumin; compound 5 μg/ml) of 260 µM. It also gave a Kd (bovine serum albumin; compound 10 μg/ml) of 240 µM, a Kd (bovine serum albumin; compound 20 μg/ml) of 320 µM and a Kd (rat albumin; read-out: Computed (1:1) Kd) of 350 µM. It also gave a fraction unbound at 10 μg/ml (rat albumin; rat albumin solution (~13 mg/ml), pH 7.4, 37° C., read-out: % Free BST4997) of 0.67.

With Oc1cnccc1-c1ncc[nH]1 [BST4996, 4-(1H-Imidazol-2-yl)-pyridin-3-ol] the IC50 [1] was 200 to 300 µM and the fraction unbound at 8 μg/ml (bovine serum albumin; [6]) was 0.53.

Oc1cnccc1-c1ccccn1 [BST4944, [2,4′]Bipyridinyl-3′-ol] was tested, and the IC50 [1] was 2000 µM and the fraction unbound at 8 μg/ml (bovine serum albumin; [6]) was 0.34.

For Cc1ncc(CO)c(CN)c1O [pyridoxamine, reference compound], the IC50 [1] was about 3000 µM.
